# Test results as given in BindingDB's records for doi:10.1074/jbc.M702153200 (University of Bern, 2007).
# Key:
# [1] = Displacement of [3H]Ro15-1788 from rat GABAA alpha-1-beta-2-gamma-2 receptor expressed in HEK293 cells after 1 hr assessed as residual binding by liquid scintillation counting
# [2] = target: Gamma-aminobutyric acid receptor subunit alpha-1 (Rattus norvegicus) (UniProt P62813); experiment: Activity at rat wild type GABAA alpha-1-beta-2-gamma-2 receptor expressed in xenopus oocytes assessed as GABA-elicited response by two electrode voltage clamp method relative to control
# Chain of Gamma-aminobutyric acid receptor subunit alpha-1 (Rattus norvegicus) (P62813 whole entry, looked up): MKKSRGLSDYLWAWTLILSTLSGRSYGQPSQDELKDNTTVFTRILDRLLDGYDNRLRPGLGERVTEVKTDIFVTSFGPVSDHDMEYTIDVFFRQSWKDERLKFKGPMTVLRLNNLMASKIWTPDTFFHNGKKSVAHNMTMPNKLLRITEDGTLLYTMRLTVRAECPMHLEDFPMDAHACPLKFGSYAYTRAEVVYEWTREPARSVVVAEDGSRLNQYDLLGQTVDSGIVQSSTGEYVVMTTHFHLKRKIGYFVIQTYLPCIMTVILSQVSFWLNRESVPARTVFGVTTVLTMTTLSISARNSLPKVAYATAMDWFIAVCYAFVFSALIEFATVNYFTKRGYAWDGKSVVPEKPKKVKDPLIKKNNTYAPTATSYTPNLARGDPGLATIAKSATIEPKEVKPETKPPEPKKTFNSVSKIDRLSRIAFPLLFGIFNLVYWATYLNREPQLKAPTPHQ
SMILES,Kd [1],EC50 [2]
"CCOC(=O)c1ncn2c1CN(C)C(=O)c1cc(N=C=S)ccc1-2 [8-Isothiocyanato-5-methyl-6-oxo-5,6-dihydro-4H-2,5,10b-triaza-benzo[e]azulene-3-carboxylic acid ethyl ester]",878 nM,250 nM
CCOC(=O)c1ncn2c1CN(C)C(=O)c1cc(N=[N+]=[N-])ccc1-2 [RO-154513],,1.1 nM
